What was measured:
[1] = target: T1, VE-cadherin/Fc chimeric protein (Homo sapiens, UniProt P33151); experiment: Cadherin specificity: phage ELISA on VE-cadherin/Fc; format: binding; design: key: +: Phage bound to the chimeric protein; −: No phage bound to the chimeric protein
T1 construct: purchased R&D Systems, Minneapolis, Minn
Description: (§1) The binding of each clone to the cadherin/Fc chimeric proteins was confirmed by ELISA. Wells of ProBind microtiter plates (Falcon) were coated with either N-cadherin/Fc or E-cadherin/Fc chimeric protein (100 ng/well) or human IgG1 (which contains the Fc fragment) (100 ng/well). After blocking the nonspecific sites with TBS containing 3% BSA and 1.2 mM CaCl2 for 1 h at 37° C., phage clones (10^9 pfu) diluted in TBST containing 3% BSA and 1.2 mM CaCl2 (100 μl/well). Non-coated wells were also used to exclude any phage that bound to the plastic surface. After 1 h incubation at room temperature, wells were washed 3 times with TBST containing 3% BSA and 1.2 mM CaCl2. M13 phage without any insert were used to control the non-specific binding of the phage itself to the target. Monoclonal anti-M13 antibody conjugated to horseradish peroxidase (Amersham Biosciences, Piscataway, N.J.) was diluted in TBST containing 3% BSA and 1.2 mM CaCl2 (1:2,000) and added to each well (100 μl/well). After 1 h incubation at room temperature, wells were washed three times with TBST containing 3% BSA and 1.2 mM CaCl2 and once with TBS containing 1.2 mM CaCl2. Horseradish peroxidase substrate, TMB (Sigma), was added to each well (100 μl/well and after color development the reaction was stopped by addition of 100 μl 0.5 M sulphuric acid to each well. The intensity of the color was measured at 450 nm.
(§2) The phage clones shown to bind to the N-cadherin/Fc chimeric protein by ELISA were also evaluated for their ability to bind to E-cadherin/Fc and VE-cadherin/Fc chimeric proteins. The phage clones shown to bind to the E-cadherin/Fc chimeric protein by ELISA were also evaluated for their ability to bind to N-cadherin/Fc and VE-cadherin/Fc chimeric proteins. The same ELISA protocol described in the previous section was used to perform this evaluation with the exception that the wells were coated with either 100 ng N-cadherin/Fc, E-cadherin/Fc or VE-cadherin/Fc chimeric protein (R&D Systems, Minneapolis, Minn.).

[2] = target: T2, E-cadherin/Fc chimeric protein (Homo sapiens, UniProt P12830); experiment: Cadherin/Fc binding assay: phage ELISA on E-cadherin/Fc; design: key: +: Phage bound to the chimeric protein; −: No phage bound to the chimeric protein
T2 construct: extracellular domain of human E-cadherin (Asp155-Ile707); purchased R&D Systems, Minneapolis, Minn
T2 sequence (P12830 155-707): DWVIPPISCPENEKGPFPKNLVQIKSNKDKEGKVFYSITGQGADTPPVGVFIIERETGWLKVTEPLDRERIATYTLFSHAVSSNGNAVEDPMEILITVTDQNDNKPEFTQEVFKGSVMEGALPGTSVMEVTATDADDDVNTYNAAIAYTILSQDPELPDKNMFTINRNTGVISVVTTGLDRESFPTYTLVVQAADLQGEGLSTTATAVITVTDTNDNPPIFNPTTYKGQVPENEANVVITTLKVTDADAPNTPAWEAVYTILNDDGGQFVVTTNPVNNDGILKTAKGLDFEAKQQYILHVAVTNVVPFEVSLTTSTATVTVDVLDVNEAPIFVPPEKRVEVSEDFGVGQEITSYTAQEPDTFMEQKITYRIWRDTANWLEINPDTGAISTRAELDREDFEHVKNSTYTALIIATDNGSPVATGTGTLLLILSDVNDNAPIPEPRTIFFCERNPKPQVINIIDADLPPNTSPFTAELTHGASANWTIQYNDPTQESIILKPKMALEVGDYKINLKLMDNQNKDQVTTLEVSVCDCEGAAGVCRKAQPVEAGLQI
Description: (§3) The peptide libraries, Ph.D.-C7C™ and Ph.D.-12™ (New England BioLabs) were used in this study. These libraries are composed of 2×10^9 randomized 7 amino acid sequences flanked by cysteine residues and linear 12 amino acid sequences, respectively. The amino acid sequences are incorporated into the minor coat protein, pIII, of M13 phage. The N-cadherin/Fc chimeric protein (R&D Systems, Minneapolis, Minn.) consists of the extracellular domain of human N-cadherin (Asp160-Ala724) and the Fc region of human IgG1. The E-cadherin/Fc chimeric protein (R&D Systems, Minneapolis, Minn.) consists of the extracellular domain of human E-cadherin (Asp155-Ile707) and the Fc region of human IgG1.
as §1, §2

[3] = target: T3, N-cadherin/Fc chimeric protein (Homo sapiens, UniProt P19022); experiment: Cadherin/Fc binding assay: phage ELISA on N-cadherin/Fc; design: key to ELISA Phage Binding to N-Cadherin/Fc Chimeric Protein 1.2 mM calcium / ELISA Phage Binding to N-Cadherin/Fc Chimeric Protein 2 mM EDTA / ELISA Phage Binding to Cadherin/Fc Chimeric Proteins N−: +: Phage bound to the chimeric protein; −: No phage bound to the chimeric protein
T3 construct: extracellular domain of human N-cadherin (Asp160-Ala724); purchased R&D Systems, Minneapolis, Minn
T3 sequence (P19022 160-724): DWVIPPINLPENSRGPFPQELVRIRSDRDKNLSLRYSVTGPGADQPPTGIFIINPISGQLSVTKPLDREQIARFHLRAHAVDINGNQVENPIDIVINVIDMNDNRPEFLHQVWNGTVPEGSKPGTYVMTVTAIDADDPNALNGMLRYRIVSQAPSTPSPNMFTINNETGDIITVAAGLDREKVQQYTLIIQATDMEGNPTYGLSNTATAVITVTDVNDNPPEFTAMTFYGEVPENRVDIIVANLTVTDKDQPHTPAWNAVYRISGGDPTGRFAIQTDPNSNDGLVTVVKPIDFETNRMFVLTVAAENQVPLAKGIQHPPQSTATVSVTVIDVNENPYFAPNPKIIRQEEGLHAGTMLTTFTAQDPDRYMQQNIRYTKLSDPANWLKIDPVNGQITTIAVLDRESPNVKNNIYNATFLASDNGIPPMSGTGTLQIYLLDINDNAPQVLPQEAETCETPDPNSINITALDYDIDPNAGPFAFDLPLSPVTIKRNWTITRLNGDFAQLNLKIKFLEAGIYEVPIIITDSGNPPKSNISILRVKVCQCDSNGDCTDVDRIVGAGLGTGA
Description: as §3
The binding of each clone to the cadherin/Fc chimeric proteins was confirmed by ELISA. Wells of ProBind microtiter plates (Falcon) were coated with either N-cadherin/Fc or E-cadherin/Fc chimeric protein (100 ng/well) or human IgG1 (which contains the Fc fragment) (100 ng/well). […] Non-coated wells were also used to exclude any phage that bound to the plastic surface. […] M13 phage without any insert were used to control the non-specific binding of the phage itself to the target. […] […] Horseradish peroxidase substrate, TMB (Sigma), was added to each well (100 μl/well and after color development the reaction was stopped by addition of 100 μl 0.5 M sulphuric acid to each well. The intensity of the color was measured at 450 nm.
as §2

[4] = Table 2, Ph.D.-C7C library clones
[5] = Table 7, Ph.D.-12 clones selected on E-cadherin/Fc
[6] = Table 6, Ph.D.-C7C clones selected on E-cadherin/Fc
[7] = Table 4, Ph.D.-12 library clones

T1 sequence (P33151 with tags, fused parts or gaps limits assumed, species assumed): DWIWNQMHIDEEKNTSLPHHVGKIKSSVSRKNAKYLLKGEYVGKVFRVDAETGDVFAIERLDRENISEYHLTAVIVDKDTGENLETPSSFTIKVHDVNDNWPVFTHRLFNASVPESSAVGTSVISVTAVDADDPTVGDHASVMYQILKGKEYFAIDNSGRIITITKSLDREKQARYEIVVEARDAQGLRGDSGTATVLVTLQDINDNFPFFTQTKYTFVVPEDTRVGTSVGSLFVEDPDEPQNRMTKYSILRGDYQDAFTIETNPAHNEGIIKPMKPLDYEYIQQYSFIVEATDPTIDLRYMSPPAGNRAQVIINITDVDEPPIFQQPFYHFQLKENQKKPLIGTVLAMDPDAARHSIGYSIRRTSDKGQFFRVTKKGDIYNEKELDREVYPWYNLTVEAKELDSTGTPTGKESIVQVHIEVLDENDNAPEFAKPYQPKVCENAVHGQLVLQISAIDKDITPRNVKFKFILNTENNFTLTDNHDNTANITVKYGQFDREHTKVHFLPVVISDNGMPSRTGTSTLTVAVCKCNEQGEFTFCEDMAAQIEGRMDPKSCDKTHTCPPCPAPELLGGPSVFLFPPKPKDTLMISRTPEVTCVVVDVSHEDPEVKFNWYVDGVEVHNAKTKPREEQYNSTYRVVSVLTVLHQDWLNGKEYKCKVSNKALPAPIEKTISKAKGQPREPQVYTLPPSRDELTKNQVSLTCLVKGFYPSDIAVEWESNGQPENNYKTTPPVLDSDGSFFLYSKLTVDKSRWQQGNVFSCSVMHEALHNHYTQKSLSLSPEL

| ELISA Phage Binding to Cadherin/Fc Chimeric Proteins VE− [1, 4] | ELISA Phage Binding to Cadherin/Fc Chimeric Proteins E− [2, 4] | ELISA Phage Binding to N-Cadherin/Fc Chimeric Protein 1.2 mM calcium [3, 4] | ELISA Phage Binding to N-Cadherin/Fc Chimeric Protein 2 mM EDTA [3, 4] | ELISA Phage Binding to Cadherin/Fc Chimeric Proteins VE− [1, 5] | ELISA Phage Binding to Cadherin/Fc Chimeric Proteins E− [2, 5] | ELISA Phage Binding to Cadherin/Fc Chimeric Proteins N− [3, 5] | Sequence | further results |
| --- | --- | --- | --- | --- | --- | --- | --- | --- |
| − | − | + | − |  |  |  | WHTSWSDTY [Nc 19] |  |
|  |  |  |  | − | + | + | AWTWSLPTLPQS [Ec 12-a5] |  |
|  |  |  |  |  |  |  | WQMVLCPAC [Ec 4] | ELISA Phage Binding to Cadherin/Fc Chimeric Proteins VE− [1, 6]: −; ELISA Phage Binding to Cadherin/Fc Chimeric Proteins E− [2, 6]: +; ELISA Phage Binding to Cadherin/Fc Chimeric Proteins N− [3, 6]: + |
| − | − | + | − |  |  |  | WEFSICETC [Nc 5] |  |
|  |  |  |  |  |  |  | CSRPQSGLC [Ec a23] | ELISA Phage Binding to Cadherin/Fc Chimeric Proteins VE− [1, 6]: −; ELISA Phage Binding to Cadherin/Fc Chimeric Proteins E− [2, 6]: +; ELISA Phage Binding to Cadherin/Fc Chimeric Proteins N− [3, 6]: + |
|  |  |  |  |  |  |  | NWFIDFPVYPPL [Nc 12-a1] | ELISA Phage Binding to Cadherin/Fc Chimeric Proteins VE− [1, 7]: −; ELISA Phage Binding to Cadherin/Fc Chimeric Proteins E− [2, 7]: −; ELISA Phage Binding to N-Cadherin/Fc Chimeric Protein 1.2 mM calcium [3, 7]: +; ELISA Phage Binding to N-Cadherin/Fc Chimeric Protein 2 mM EDTA [3, 7]: + |
|  |  |  |  | − | + | + | EWQYHWPTLQSR [Ec 12-22] |  |
| − | − | + | − |  |  |  | WELRVSSPC [Nc a7] |  |
|  |  |  |  | − | + | + | EWTYTFPTAHSI [Ec 12-a18] |  |
|  |  |  |  | − | + | + | GWTVFYPDNLRP [Ec 12-18] |  |
|  |  |  |  |  |  |  | WTWHWPPCC [Ec a22] | ELISA Phage Binding to Cadherin/Fc Chimeric Proteins VE− [1, 6]: −; ELISA Phage Binding to Cadherin/Fc Chimeric Proteins E− [2, 6]: +; ELISA Phage Binding to Cadherin/Fc Chimeric Proteins N− [3, 6]: + |
| − | − | + | − |  |  |  | WLQPYFPSY [Nc a5] |  |
|  |  |  |  |  |  |  | KWELTYFANSFP [Nc 12-a3] | ELISA Phage Binding to Cadherin/Fc Chimeric Proteins VE− [1, 7]: −; ELISA Phage Binding to Cadherin/Fc Chimeric Proteins E− [2, 7]: −; ELISA Phage Binding to N-Cadherin/Fc Chimeric Protein 1.2 mM calcium [3, 7]: +; ELISA Phage Binding to N-Cadherin/Fc Chimeric Protein 2 mM EDTA [3, 7]: + |
